We go through ten compounds from US6399607B1, “Aminomethylene amide analogs of pyrazinamide with intracellular antimycobacterial activity against pyrazinamide-resistant mycobacteria combined with a rifamycin” (priority 1999, dated 2002).

Common to all, as to type: cell-based, Mycobacterium tuberculosis
In assay [1] the test system is M. tuberculosis. The experiment in a line: Influence of pH on MICs (Table 5). Details: unit not given beside the values. The following applies: ATCC 35828 (PZA resistant).
The subject of assay [2] is M. tuberculosis. The experiment in a line: MIC in modified 7H10 broth against M. tuberculosis (Table 3). Details: MIC, M. tuberculosis ATCC 35828: unit not given beside the values. The following applies: ATCC 35828 (PZA resistant), pH 5.8.
Assay [3] has as its system M. tuberculosis. The experiment in a line: microbe, parasite or virus in culture. Details: MIC, PZA-resistant strain at pH 6.0: unit not given beside the values. The following applies: for MIC, INH-resistant strain, pH 6.0 / MIC, PZA-resistant strain, pH 6.0 / MIC, INH-resistant strain, pH 6.8 / MIC, PZA-resistant strain, pH 6.8: 7H12 BACTEC broth.
The subject of assay [4] is M. tuberculosis.
Assay [5] deals with M. tuberculosis. Details: unit not given beside the values. The following applies: for MIC, M. tuberculosis ATCC 27294: ATCC 27294 = H37RV, strain susceptible to pyrazinamide; for MIC, M. tuberculosis ATCC 35822: ATCC 35822, isoniazid (INH)-resistant strain; for MIC, M. tuberculosis ATCC 35828: ATCC35828, PZA resistant strain; for MIC, M. tuberculosis MS 6210: MS6210, resistant clinical isolate.

In assay [6] the test system is PZA-resistant Mtb in macrophages. The following applies: FIG. 1; in comparison with PZA or the control.

Molecules are shown by their SMILES. Where two headings read alike, the source gives them in different places.

In the case of `NC(=O)c1cnccn1` [PZA, Pyrazinamide], in the assay on M. tuberculosis [1], the “MIC, ATCC 35828 pH 6.0” value is over 300 and the “MIC, ATCC 35828 pH 6.8” value is reported as over 300. Besides, the “MIC, M. tuberculosis ATCC 35828” value against M. tuberculosis [2] is 2048. In the assay with M. tuberculosis [3] (pH 6.0), the “MIC, INH-resistant strain, pH 6.0” value came to 33 g./ml and the “MIC, PZA-resistant strain, pH 6.0” value was over 300 g./ml. Moreover, in the assay with M. tuberculosis [3], the “MIC, INH-resistant strain, pH 6.8” value is on record as over 300 g./ml and the “MIC, PZA-resistant strain, pH 6.8” value is recorded as over 300 g./ml. In addition, the “MIC, PZA-resistant strain, pH 5.5” value in the assay on M. tuberculosis [3] (PZA-resistant strain) is on record as over 300 g./ml. Further, the “MIC, PZA-resistant strain at pH 6.0” value against M. tuberculosis [3] (PZA-resistant strain, pH 6.0) is over 300. Besides, the “activity against susceptible strains by pH” value in the assay with M. tuberculosis [4] (pH 5.5, 6.0, 6.8) is “active against susceptible strains at pH 5.5 and 6.0 only, and not at pH 6.8”. Moreover, in the assay on M. tuberculosis [5], the “MIC, M. tuberculosis ATCC 27294” value turned out to be 33; the “MIC, M. tuberculosis ATCC 35822” value is on record as 33; the “MIC, M. tuberculosis ATCC 35828” value is given as over 300; the “MIC, M. tuberculosis MS 6210” value worked out at 100.

Regarding `CCN(CC)CNC(=O)c1cnccn1` [Compound 2, pyrazine-2-carboxylic acid diethylaminomethyl-amide], in the assay on M. tuberculosis [1], the “MIC, ATCC 35828 pH 6.0” value is 100 and the “MIC, ATCC 35828 pH 6.8” value amounted to 100. The “number of colony forming units (CFU) of M. tuberculosis from macrophages” value in assay [6] is on record as “reduced the number of CFU”. For the same compound, the “MIC, M. tuberculosis ATCC 35828” value with M. tuberculosis [2] came to 1. Further, in the assay on M. tuberculosis [3] (pH 6.0), the “MIC, INH-resistant strain, pH 6.0” value is 100 g./ml and the “MIC, PZA-resistant strain, pH 6.0” value was found to be 100 g./ml. Also, in the assay on M. tuberculosis [3], the “MIC, INH-resistant strain, pH 6.8” value is given as 100 g./ml and the “MIC, PZA-resistant strain, pH 6.8” value is reported as 100 g./ml.

In the case of `NC(=O)c1cnc(Cl)cn1` [Compound 5-Chloro-PZA, 5-chloro-pyrazinamide, reference compound], in the assay on M. tuberculosis [2], the “MIC, M. tuberculosis ATCC 35828” value was 8.

`CCCN(CCC)CNC(=O)c1cnccn1` [Compound 9, dipropylaminomethyl-amide]: in the assay with M. tuberculosis [5], the “MIC, M. tuberculosis ATCC 27294” value was found to be 100; the “MIC, M. tuberculosis ATCC 35822” value is listed as 100; the “MIC, M. tuberculosis ATCC 35828” value is 100; the “MIC, M. tuberculosis MS 6210” value turned out to be 100.

For the compound `O=C(NCN1CCCC1)c1cnccn1` [Compound 1, pyrazine-2-carboxylic acid (pyrrolidin-1-ylmethyl)-amide], in the assay with M. tuberculosis [1], the “MIC, ATCC 35828 pH 6.0” value worked out at 100 and the “MIC, ATCC 35828 pH 6.8” value amounted to 100. Moreover, the “MIC, M. tuberculosis ATCC 35828” value in the assay on M. tuberculosis [2] turned out to be 2. In addition, in the assay with M. tuberculosis [3] (pH 6.0), the “MIC, INH-resistant strain, pH 6.0” value amounted to 100 g./ml and the “MIC, PZA-resistant strain, pH 6.0” value is reported as 100 g./ml. In addition, in the assay on M. tuberculosis [3], the “MIC, INH-resistant strain, pH 6.8” value is 100 g./ml and the “MIC, PZA-resistant strain, pH 6.8” value was determined as 100 g./ml. In addition, the “MIC, PZA-resistant strain, pH 5.5” value against M. tuberculosis [3] (PZA-resistant strain) is reported as 100 g./ml.

As to `CN1CCN(CNC(=O)c2cnccn2)CC1` [Compound 7, (piperazin-1-ylmethyl)-amide], in the assay with M. tuberculosis [5], the “MIC, M. tuberculosis ATCC 27294” value was found to be 300; the “MIC, M. tuberculosis ATCC 35822” value is recorded as 100; the “MIC, M. tuberculosis ATCC 35828” value was found to be 300; the “MIC, M. tuberculosis MS 6210” value amounted to 100.

Turning to `CN(CNC(=O)c1cnccn1)Cc1ccccc1` [Compound 8, [(benzyl-methyl-amino)-methyl]-amide], in the assay on M. tuberculosis [5], the “MIC, M. tuberculosis ATCC 27294” value was 100; the “MIC, M. tuberculosis ATCC 35822” value was 100; the “MIC, M. tuberculosis ATCC 35828” value was found to be 100; the “MIC, M. tuberculosis MS 6210” value came to 33.

For the compound `CCN(CC)CNC(=O)c1cnc(N(CC)CC)cn1` [Compound 17, 5-diethylamino-pyrazinoic acid diethylaminomethyl-amide], the “MIC, M. tuberculosis ATCC 35828” value against M. tuberculosis [2] was determined as 16.

For `O=C(NCN1CCOCC1)c1cnccn1` [MZA, morphazinamide], in the assay with M. tuberculosis [1], the “MIC, ATCC 35828 pH 6.0” value is 100 and the “MIC, ATCC 35828 pH 6.8” value worked out at 100. In the assay with M. tuberculosis [3] (pH 6.0), the “MIC, INH-resistant strain, pH 6.0” value is reported as 100 g./ml and the “MIC, PZA-resistant strain, pH 6.0” value is listed as 100 g./ml. In the assay with M. tuberculosis [3], the “MIC, INH-resistant strain, pH 6.8” value is reported as 100 g./ml and the “MIC, PZA-resistant strain, pH 6.8” value is recorded as 100 g./ml. Also, the “MIC, PZA-resistant strain, pH 5.5” value against M. tuberculosis [3] (PZA-resistant strain) amounted to 100 g./ml. Further, the “activity at pH 6.8 compared with pH levels 5.5 and 6.0” value in the assay on M. tuberculosis [4] (pH 6.8 v. 5.5 and 6.0) was “no different from or only slightly higher than at pH levels 5.5 and 6.0”. Moreover, the “MICs against susceptible strains at pH 5.5 and 6.0 compared with PZA” value with M. tuberculosis [4] (susceptible strains, pH 5.5 and 6.0) is reported as “in the same range as those of PZA”.

Take `O=C(NCN1CCOCC1)c1cnccn1` [Compound 4, (morpholin-4-ylmethyl)-amide]: the “MIC, M. tuberculosis ATCC 35828” value against M. tuberculosis [2] is listed as 16. For the same compound, in the assay on M. tuberculosis [5], the “MIC, M. tuberculosis ATCC 27294” value is reported as 100; the “MIC, M. tuberculosis ATCC 35822” value stood at 33; the “MIC, M. tuberculosis ATCC 35828” value worked out at 100; the “MIC, M. tuberculosis MS 6210” value worked out at 100.
